Measurements as given in PMC12860872, “Preclinical evaluation of DOTAGA.Glu.(FAPI)2 and DO3A.Glu.(FAPI)2 as theranostics with human dosimetry extrapolation to lutetium-177 and terbium-161 analogs” (European Journal of Nuclear Medicine and Molecular Imaging, 2025).
“And” between values parts separate entries of the source, which are not always exact repeats. Equal entries are not always repeated.

Assay: Extrapolated human dosimetry (OLINDA/EXM, ICRP-89 phantoms)
Method: To address inter-animal variability, the TIACs for each source organ were calculated from both the mean nTACs and the nTACs obtainend from fitting the mean ± 1 standard deviation (SD) of the normalized time-activity data, providing upper and lower bounds.
The mice-to-human TIAC extrapolation accounted for species-specific differences in relative source organ masses, m(organ), as compared to the total body weight (WB), for the mice (m) and human (h) models respectively.
(§1) The human organ masses, m(organ)h, were obtained from ICRP-89 adult male and female reference phantoms, while the murine organ masses, m(organ)m, were derived from the standard MOBY mouse model. The extrapolated human TIACs, TIACh were entered in the OLINDA/EXM software to compute the absorbed doses to target organs and the effective dose for adult male, female, and gender-averaged human models. […]
The TIACs, for [177Lu]Lu-DOTAGA.Glu.(FAPI)2 and [177Lu]Lu-DO3A.Glu.(FAPI)2, were determined by time integration of the nTACs. To account for the inter-animal variability, the TIACs for each source organ were calculated using both the mean nTACs and the nTACs obtainend from fitting the mean ±1 standard deviation (SD) of the normalized time-activity data. This approach provided the upper and the lower bounds for the estimated TIACs.
The mice-to-human TIAC extrapolation was obtained considering the different (species-specific) relative source organ masses, m(organ), as compared to the total body weight (WB), for the mice (m) and human (h) models respectively.
as §1, with “the” for “ICRP-89”, “models phantoms defined in ICRP-89,” for “phantoms,”, “TIACs values, TIACh, for each source organ” for “TIACs, TIACh”, “input into the kinetic module of” for “entered in”, “software (version 2.1, HERMES Medical Solutions AB, Stockholm, Sweden)” for “software”

[1] = ICRP 89 Adult Female, extrapolated
[2] = ICRP 89 Adult Male, extrapolated

Question: With `N#C[C@@H]1CC(F)(F)CN1C(=O)CNC(=O)c1ccnc2ccc(OCCCCNC(=O)CC[C@H](NC(=O)CN3CCN(CC(=O)[O-])CCN(CC(=O)[O-])CCN(CC(=O)[O-])CC3)C(=O)NCCCCOc3ccc4nccc(C(=O)NCC(=O)N5CC(F)(F)C[C@H]5C#N)c4c3)cc12.[161Tb+3]` [[^161Tb]Tb-DO3A.Glu.(FAPI)2] as the compound, how does the “Absorbed dose (AD average) Adrenals” value [1] read?
Answer: Its value is 1.39E-02 mGy/Mbq.

Question: And the “Absorbed dose (AD average) Brain” value [1]?
Answer: Its value is 3.68E-02 mGy/Mbq.

Question: What about the “Absorbed dose (AD average) Breasts” value [1] of the same compound?
Answer: The value was 3.54E-02 mGy/Mbq.

Question: And the “Absorbed dose (AD average) Esophagus” value [1]?
Answer: The value was 3.67E-02 mGy/Mbq.

Question: And the “Absorbed dose (AD average) Eyes” value [1]?
Answer: The value was 3.68E-02 mGy/Mbq.

Question: What about the “Absorbed dose (AD average) Gallbladder Wall” value [1] of the same compound?
Answer: Its value is 3.79E-02 mGy/Mbq.

Question: And the “Absorbed dose (AD average) Heart Wall” value [1]?
Answer: Its value is 3.39E-02 mGy/Mbq.

Question: And the “Absorbed dose (AD average) Kidneys” value [1]?
Answer: The value was 3.48E-02 ± 0.001 mGy/Mbq and 3.48E-02 mGy/Mbq.

Question: What about the “Absorbed dose (AD average) Left colon” value [1] of the same compound?
Answer: Its value is 3.75E-02 mGy/Mbq.

Question: What about the “Absorbed dose (AD average) Liver” value [1] of the same compound?
Answer: The value was 1.01E-01 ± 0.004 mGy/Mbq and 1.01E-01 mGy/Mbq.

Question: And the “Absorbed dose (AD average) Lungs” value [1]?
Answer: The value was 5.78E-02 ± 0.01 mGy/Mbq and 5.78E-02 mGy/Mbq.

Question: What about the “Absorbed dose (AD average) Osteogenic Cells” value [1] of the same compound?
Answer: Its value is 8.70E-02 ± 0.003 mGy/Mbq and 8.70E-02 mGy/Mbq.

Question: And the “Absorbed dose (AD average) Ovaries” value [1]?
Answer: Its value is 3.75E-02 mGy/Mbq.

Question: What about the “Absorbed dose (AD average) Pancreas” value [1] of the same compound?
Answer: The value was 3.59E-02 ± 0.001 mGy/Mbq and 3.59E-02 mGy/Mbq.

Question: What about the “Absorbed dose (AD average) Rectum” value [1] of the same compound?
Answer: Its value is 3.75E-02 mGy/Mbq.

Question: And the “Absorbed dose (AD average) Red Marrow” value [1]?
Answer: The value was 4.37E-02 ± 0.002 mGy/Mbq and 4.37E-02 mGy/Mbq.

Question: What about the “Absorbed dose (AD average) Right colon” value [1] of the same compound?
Answer: The value was 3.76E-02 mGy/Mbq.

Question: What about the “Absorbed dose (AD average) Salivary Glands” value [1] of the same compound?
Answer: The value was 1.22E-01 ± 0.01 mGy/Mbq and 1.22E-01 mGy/Mbq.

Question: What about the “Absorbed dose (AD average) Small Intestine” value [1] of the same compound?
Answer: Its value is 3.72E-02 ± 0.002 mGy/Mbq and 3.72E-02 mGy/Mbq.

Question: What about the “Absorbed dose (AD average) Spleen” value [1] of the same compound?
Answer: Its value is 8.87E-02 ± 0.004 mGy/Mbq and 8.87E-02 mGy/Mbq.

Question: What about the “Absorbed dose (AD average) Stomach Wall” value [1] of the same compound?
Answer: Its value is 3.75E-02 mGy/Mbq.

Question: And the “Absorbed dose (AD average) Thymus” value [1]?
Answer: The value was 3.72E-02 mGy/Mbq.

Question: What about the “Absorbed dose (AD average) Thyroid” value [1] of the same compound?
Answer: Its value is 3.64E-02 mGy/Mbq.

Question: What about the “Absorbed dose (AD average) Total Body” value [1] of the same compound?
Answer: The value was 4.70E-02 ± 0.002 mGy/Mbq and 4.70E-02 mGy/Mbq.

Question: And the “Absorbed dose (AD average) Urinary Bladder Wall” value [1]?
Answer: Its value is 3.70E-02 mGy/Mbq.

Question: What about the “Absorbed dose (AD average) Uterus” value [1] of the same compound?
Answer: The value was 3.73E-02 mGy/Mbq.

Question: What about the “Effective dose (average)” value [1] of the same compound?
Answer: Its value is 4.10E-02.

Question: And the “Absorbed dose (AD average) Adrenals” value [2]?
Answer: Its value is 1.05E-02 mGy/Mbq.

Question: And the “Absorbed dose (AD average) Brain” value [2]?
Answer: The value was 2.80E-02 mGy/Mbq.

Question: What about the “Absorbed dose (AD average) Esophagus” value [2] of the same compound?
Answer: Its value is 2.84E-02 mGy/Mbq.

Question: And the “Absorbed dose (AD average) Eyes” value [2]?
Answer: The value was 2.80E-02 mGy/Mbq.

Question: And the “Absorbed dose (AD average) Gallbladder Wall” value [2]?
Answer: The value was 3.02E-02 mGy/Mbq.

Question: And the “Absorbed dose (AD average) Heart Wall” value [2]?
Answer: Its value is 2.78E-02 mGy/Mbq.

Question: And the “Absorbed dose (AD average) Kidneys” value [2]?
Answer: Its value is 2.84E-02 ± 0.001 mGy/Mbq and 2.84E-02 mGy/Mbq.

Question: What about the “Absorbed dose (AD average) Left colon” value [2] of the same compound?
Answer: The value was 2.85E-02 mGy/Mbq.

Question: What about the “Absorbed dose (AD average) Liver” value [2] of the same compound?
Answer: The value was 8.31E-02 ± 0.003 mGy/Mbq and 8.31E-02 mGy/Mbq.

Question: What about the “Absorbed dose (AD average) Lungs” value [2] of the same compound?
Answer: Its value is 4.73E-02 ± 0.01 mGy/Mbq and 4.73E-02 mGy/Mbq.

Question: What about the “Absorbed dose (AD average) Osteogenic Cells” value [2] of the same compound?
Answer: The value was 8.97E-02 ± 0.003 mGy/Mbq and 8.97E-02 mGy/Mbq.

Question: What about the “Absorbed dose (AD average) Pancreas” value [2] of the same compound?
Answer: The value was 2.88E-02 ± 0.001 mGy/Mbq and 2.88E-02 mGy/Mbq.

Question: What about the “Absorbed dose (AD average) Prostate” value [2] of the same compound?
Answer: The value was 2.81E-02 mGy/Mbq.

Question: What about the “Absorbed dose (AD average) Rectum” value [2] of the same compound?
Answer: Its value is 2.84E-02 mGy/Mbq.

Question: And the “Absorbed dose (AD average) Red Marrow” value [2]?
Answer: Its value is 3.45E-02 ± 0.001 mGy/Mbq and 3.45E-02 mGy/Mbq.

Question: What about the “Absorbed dose (AD average) Right colon” value [2] of the same compound?
Answer: Its value is 2.86E-02 mGy/Mbq.

Question: And the “Absorbed dose (AD average) Salivary Glands” value [2]?
Answer: The value was 1.00E-01 ± 0.01 mGy/Mbq and 1.00E-01 mGy/Mbq.

Question: And the “Absorbed dose (AD average) Small Intestine” value [2]?
Answer: The value was 2.85E-02 ± 0.001 mGy/Mbq and 2.85E-02 mGy/Mbq.

Question: And the “Absorbed dose (AD average) Spleen” value [2]?
Answer: The value was 7.27E-02 ± 0.003 mGy/Mbq and 7.27E-02 mGy/Mbq.

Question: What about the “Absorbed dose (AD average) Stomach Wall” value [2] of the same compound?
Answer: Its value is 2.84E-02 mGy/Mbq.

Question: And the “Absorbed dose (AD average) Testes” value [2]?
Answer: Its value is 2.72E-02 mGy/Mbq.

Question: And the “Absorbed dose (AD average) Thymus” value [2]?
Answer: The value was 2.79E-02 mGy/Mbq.

Question: And the “Absorbed dose (AD average) Thyroid” value [2]?
Answer: Its value is 2.81E-02 mGy/Mbq.

Question: What about the “Absorbed dose (AD average) Total Body” value [2] of the same compound?
Answer: The value was 3.70E-02 ± 0.002 mGy/Mbq and 3.70E-02 mGy/Mbq.

Question: What about the “Absorbed dose (AD average) Urinary Bladder Wall” value [2] of the same compound?
Answer: The value was 2.81E-02 mGy/Mbq.

Question: And the “Effective dose (average)” value (ICRP 89 Adult Male, extrapolated, in mSv/MBq (unit assumed))?
Answer: Its value is 2.91E-02.

Question: And the “higher tissue doses vs. the 177Lu-labeled analogs” value (human extrapolation, average over tissues)?
Answer: Its value is ~ 38%.
